Article PMC7181131, “N-Pyrazinoyl Substituted Amino Acids as Potential Antimycobacterial Agents—the Synthesis and Biological Evaluation of Enantiomers” (Molecules, 2020)
pIC50: −log10 of the molar value. In brackets after ≈: the same amount, converted by molar mass. Where two headings read alike, the source gives them in different places.

Tests used:
[1] = test system: Mycobacterium aurum DSM 43999 (ATCC 23366); experiment: Microplate Alamar Blue Assay (MABA) microdilution, M. aurum; type: cell-based
[2] = test system: M. smegmatis DSM 43465 (ATCC 607); experiment: Microplate Alamar Blue Assay (MABA) microdilution, M. smegmatis; type: cell-based, Mycobacterium smegmatis
HepG2 cell line [3] = test system: HepG2 cell line; parameters: method as in PMID 23357778; conditions: converted to µM based on the literature value 1184.3 ± 120.2 µg/mL ref 62; cited from earlier work
[4] = test system: Mtb H37Ra ITM-M006710 (ATCC 9431); experiment: Microplate Alamar Blue Assay (MABA) microdilution, Mtb H37Ra; type: cell-based, Mycobacterium tuberculosis; conditions: for MIC: Mycobacterium tuberculosis
[5] = test system: Aspergillus fumigatus ATCC 204305; experiment: Antifungal microdilution broth method, AF; type: cell-based; conditions: ATCC204305, 48 h, read-out: MIC AF
[6] = test system: Candida tropicalis CCM 8264 (ATCC 750); experiment: Antifungal microdilution broth method, CT; type: cell-based; conditions: 24 h, read-out: MIC CT
[7] = test system: Staphylococcus epidermidis CCM 4418 (ATCC 12228); experiment: Antibacterial microdilution broth method, SE; type: cell-based; conditions: 24 h, read-out: MIC SE
[8] = test system: Candida krusei CCM 8271 (ATCC 6258); experiment: Antifungal microdilution broth method, CK; type: cell-based; conditions: Pichia kudriavzevii, 24 h, read-out: MIC CK
[9] = test system: Candida parapsilosis CCM 8260 (ATCC 22019); experiment: Antifungal microdilution broth method, CP; type: cell-based; conditions: Lodderomyces parapsilosis, 24 h, read-out: MIC CP
[10] = test system: Candida albicans CCM 8320 (ATCC 24433); experiment: Antifungal microdilution broth method, CA; type: cell-based; conditions: 24 h, read-out: MIC CA
[11] = test system: Aspergillus flavus CCM 8363; experiment: Antifungal microdilution broth method, AFla; type: cell-based; conditions: CCM8363, read after 48 h (filamentous fungi), read-out: MIC AFla
some G- bacteria = experiment: Antibacterial microdilution broth method, strains not given; type: cell-based; conditions: read-out: MIC against some G- bacteria
[12] = test system: Trichophyton interdigitale CCM 8377 (ATCC 9533); experiment: Antifungal microdilution broth method, TI; type: cell-based; conditions: 48 h, read-out: MIC TI
[13] = test system: Lichtheimia corymbifera CCM 8077; experiment: Antifungal microdilution broth method, LC; type: cell-based; conditions: CCM8077, 48 h, read-out: MIC LC
HepG2 cell line [14] = experiment: HepG2 cytotoxicity, CellTiter 96 (MTS) assay; type: cell-based, human; conditions: 24 h incubation, CellTiter 96
[15] = test system: Klebsiella pneumoniae CCM 4415 (ATCC 10031); experiment: Antibacterial microdilution broth method, KP; conditions: read after 24 h of incubation
[16] = pH 6.6, read-out: MIC Mtb H37Ra
[17] = pH 6, calculated from µg/mL, read-out: MIC Mtb H37Ra

Compound: NC(=O)c1cnccn1 [PZA, pyrazinamide, reference compound]
- MIC ([1]; Mycolicibacterium aurum, pH 6; read-out: MIC M. aurum): 250 µg/mL (≈ 2030 µM)
- MIC ([1]; Mycolicibacterium aurum, pH 6.6; read-out: MIC M. aurum): ≥ 500 µg/mL
- MIC ([2]; Mycolicibacterium smegmatis, pH 6; read-out: MIC M. smegmatis): ≥ 500 µg/mL
- MIC ([2]; Mycolicibacterium smegmatis, pH 6.6; read-out: MIC M. smegmatis): ≥ 500 µg/mL
- IC50 (HepG2 cell line [3]): 9620 µM
- MIC ([4]; pH 6, read-out: Mtb pH 6 MIC): 31.8 µM
- MIC ([4]; pH 6, read-out: MIC Mtb H37Ra): < 3.91 µg/mL
- MIC [4, 16]: ≥ 500 µg/mL
- MIC [4, 17]: < 31.8 µM

Compound: CCOC(=O)[C@H](C)NC(=O)c1cnccn1 [PC-L-Ala-Et, ethyl (pyrazine-2-carbonyl)-L-alaninate]
- MIC [5]: > 500 µM
- MIC [6]: > 500 µM
- MIC [7]: 250 µM (≈ 55.8 µg/mL)
- MIC [8]: > 500 µM
- MIC ([1]; Mycolicibacterium aurum, pH 6, read-out: MIC M. aurum µg/mL): ≥ 125 µg/mL
- MIC ([1]; Mycolicibacterium aurum, pH 6.6, read-out: MIC M. aurum): ≥ 500 µg/mL
- MIC ([2]; Mycolicibacterium smegmatis, pH 6, read-out: MIC M. smegmatis µg/mL): ≥ 125 µg/mL
- MIC ([2]; Mycolicibacterium smegmatis, pH 6.6, read-out: MIC M. smegmatis): ≥ 500 µg/mL
- MIC [9]: > 500 µM
- MIC [10]: > 500 µM
- MIC [11]: > 500 µM
- MIC (some G- bacteria): 125 µM (≈ 27.9 µg/mL)
- MIC [12]: 500 µM (≈ 112 µg/mL)
- MIC [13]: > 500 µM
- HepG2 IC50 (HepG2 cell line [14]): above the tested range
- pIC50 (HepG2 cell line [14]; Homo sapiens, HepG2, read-out: HepG2 IC50): < 3.00
- MIC KP [15]: > 500 µM
- times lower MIC of the ethyl ester compared to the free acid ([4]; Mtb H37Ra, pH 6, PC-L-Ala-Et vs PC-L-Ala): at least 64 times
- MIC ([4]; pH 6): 3.91 µg/mL
- MIC ([4]; pH 6, read-out: MIC Mtb H37Ra): 3.91 µg/mL
- MIC [4, 16]: ≥ 500 µg/mL
- MIC ([4]; pH 6, Table 4, read-out: Mtb pH 6 MIC): 18 µM
- MIC [4, 17]: 17.5 µM
